According to US20170196868A1, “METHODS AND COMPOSITIONS FOR TREATMENT OF HER-POSITIVE CANCERS” (UNIVERSITY OF SOUTH CAROLINA, priority 2014, published 2017):
Values joined by “and” are separate entries in the source; they are usually repeats but may differ in a detail not shown here. Identical values can stand only once. One block for each compound: values may come before it.

Legend:
Type in all cases: cell-based
[1] = test system: ER-HER2+ breast cancer cell line HCC-1419; assay: MTT assay for relative cell number, drug combination analysis (CompuSyn CI)
Protocol: (§1) In these experiments, 2000 cells/well were plated in each well of 96 well plates. […] Treatment was repeated after 3 days, and the MTT assay for relative cell number was performed after the total of 7 days of treatment. The Combination Index (CI) values were calculated using CompuSyn® (www.combosyn.com), a web tool based on the principles described in Chou (2006).
(§2) The same analysis as above was conducted in ER-HER2+ breast cancer cell line HCC-1419 which, despite high levels of HER2, is intrinsically resistant to trastuzumab but sensitive to lapatinib; this pattern of resistance has been associated with activated phosphoinositide 3-kinase/AKT signaling (O'Brien et al., 2010). We also analyzed ER-HER2+ breast cancer cell line JIMT-1, which is intrinsically resistant to both trastuzumab and lapatinib.

[2] = test system: ER-HER2+ breast cancer cell line JIMT-1; assay: as above
Protocol: as §1, §2

[3] = test system: HER2+ colon cancer cell line HT-29; assay: as above; settings: for response of cells to drug alone: single agent
Protocol: (§3) FIG. 1 presents an analysis of the nature of the interaction between CDK8/19 inhibitor Senexin B (a.k.a. SNX2-1-165) developed and owned by Senex Biotechnology, Inc.) and a HER2-specific monoclonal antibody (a biosimilar of trastuzumab from Biocad, Strelna, Russia) in BT474, a ER+HER2+ breast cancer cell line. In these experiments, 2000 cells/well were plated in each well of 96 well plates. […] Treatment was repeated after 3 days, and the MTT assay for relative cell number was performed after the total of 7 days of treatment. The Combination Index (CI) values were calculated using CompuSyn® (www.combosyn.com), a web tool based on the principles described in Chou (2006). […] Similar analysis was conducted for the interaction between Senexin B and lapatinib (LAP), a small-molecule inhibitor of both HER2 and EGFR, in the same cells; using a SNXB:LAP molar ratio of 10:1.
(§4) To determine if CDK8/19 inhibition affects the response of HER2+ colon cancer cells to lapatinib, we conducted the same type of analysis as above on two HER2+ colon cancer cell lines, HCT-116 and HT-29 (both plated at 1500 cells per well).

[4] = test system: HER2+ colon cancer cell line HCT-116; assay: as above; settings: for response of cells to drug alone: single agent
Protocol: as §3, §4

[5] = test system: BT474, a ER+HER2+ breast cancer cell line; assay: as above
Protocol: as §3

[6] = test system: SKBR3 (ER-HER2+) breast cancer cell line; assay: Emergence of lapatinib resistance, continuous exposure for 16 weeks, crystal violet staining; settings: for inhibition of cell growth after 1 week of treatment: single agent, 2.5 μM Senexin B or 250 nM lapatinib
Excerpt: (§5) A major problem for chemotherapy in general and for molecularly targeted drugs in particular is the development of drug resistance. The ability to prevent the development of drug resistance could allow sustained response to targeted drugs and transform the outcome of cancer therapy. Since CDK8 is a key mediator of transcriptional reprogramming (Galbraith et al., 2010, 2013), we hypothesized that CDK8 inhibition may prevent the induction of transcription that may be associated with epigenetic acquisition of drug resistance. To test this hypothesis, we plated BT474 (ER+HER2+) and SKBR3 (ER-HER2+) breast cancer cell lines at 250,000 cells per T25 flask, and the cells were continuously exposed to 2.5 μM Senexin B, 250 nM lapatinib, alone and in combination, for a period of 16 weeks, changing drug-containing media twice a week. At selected time points, cells in flasks were fixed with methanol:acetic acid and stained with crystal violet. The results for BT474 are shown in FIG. 9 and for SKBR3 in FIG. 10. […] However, by week 4 (in the case of BT474) or week 8 (in the case of SKBR3), the outgrowth of cells treated with lapatinib alone became noticeable compared to cells treated with lapatinib+Senexin B combination.

[7] = test system: BT474 (ER+HER2+) breast cancer cell line; assay: as above; settings: for inhibition of cell growth after 1 week of treatment: single agent, 2.5 μM Senexin B or 250 nM lapatinib
Excerpt: as §5

[8] = test system: lapatinib-selected SKBR3-LT cells; assay: Sensitivity of lapatinib-selected cells versus parental SKBR3, 7-day treatment; settings: 7 days
ER-HER2+ cell line SKBR3 = assay: MTT assay for relative cell number, drug combination analysis (CompuSyn CI); settings: Senexin B + lapatinib; three experiments
Protocol: as §3
The same analysis was then conducted using an ER-HER2+ cell line SKBR3 (cells were plated at 1,500 cells per well).

[9] = test system: BT474 breast cancer cells; assay: Emergence of erlotinib resistance, continuous treatment for 35 days
Protocol: We conducted a similar experiment with BT474 breast cancer cells continuously treated with erlotinib, an inhibitor of EGFR, another member of the same HER family as HER2/Neu. 600,000 cells per T75 flask were plated in the continuous presence of […] erlotinib, […] Senexin B, or a combination of both (changing drug-containing media twice a week). […] The macroscopic and microscopic views of the corresponding samples after 35 days of treatment are shown in FIG. 11 and FIG. 12, respectively.

[10] = Senexin B + trastuzumab biosimilar (TRAST)
[11] = combination of Senexin B and lapatinib
[12] = combination of 250 nM lapatinib and 2.5 μM Senexin B
[13] = 250 nM lapatinib alone, compared to lapatinib+Senexin B combination

IC50 CI (Combination Index) ([2]; Senexin B + lapatinib): 0.39
IC50 CI (Combination Index) [2, 10]: 0.04
IC50 CI (Combination Index) ([5]; Senexin B + lapatinib (LAP), SNXB:LAP molar ratio 10:1, separate experiments): 0.512 and 0.728
IC50 CI (Combination Index) (ER-HER2+ cell line SKBR3): 0.611 and 0.674 and 0.470
SMILES: CN1CCN(C(=O)c2ccc3cc(CCNc4ncnc5ccc(C#N)cc45)ccc3c2)CC1 [Senexin B]
CI (Combination Index) ([1]; Senexin B + lapatinib): 0.64
CI (Combination Index) [1, 10]: 0.45
CI (Combination Index) ([3]; Senexin B + lapatinib): 0.314
response of cells to combination [3, 11]: significant response
response of cells to drug alone [3]: weak response
CI (Combination Index) ([4]; Senexin B + lapatinib): 0.647
response of cells to combination [4, 11]: significant response
response of cells to drug alone [4]: weak response
IC75 CI (Combination Index) ([5]; Senexin B (SNXB) + trastuzumab biosimilar (HER), fixed ratio 100 nM SNXB:1 μg/ml HER, 7 days, first experiment): 0.019
cell growth after 16 weeks of continuous treatment [6, 12]: did not grow
inhibition of cell growth after 1 week of treatment [6]: limited effect
cell growth after 16 weeks of continuous treatment [7, 12]: did not grow
inhibition of cell growth after 1 week of treatment [7]: limited effect
sensitivity of SKBR3-LT relative to SKBR3 ([8]; Senexin B combination with lapatinib, fixed ratio): essentially unchanged
sensitivity of SKBR3-LT relative to SKBR3 ([8]; Senexin B combination with trastuzumab biosimilar, fixed ratio): essentially unchanged
sensitivity of SKBR3-LT relative to SKBR3 ([8]; single agent): essentially unchanged
emergence of resistant colonies after 35 days of treatment ([9]; combination of 10 mM erlotinib and 1 mM Senexin B): prevented the emergence of resistance

SMILES: C#Cc1cccc(Nc2ncnc3cc(OCCOC)c(OCCOC)cc23)c1 [erlotinib]
emergence of resistant colonies after 35 days of treatment ([9]; 10 mM erlotinib alone): erlotinib-resistant colonies emerged
initial effect on cell growth ([9]; 10 mM erlotinib alone): initially inhibited cell growth

SMILES: CS(=O)(=O)CCNCc1ccc(-c2ccc3ncnc(Nc4ccc(OCc5cccc(F)c5)c(Cl)c4)c3c2)o1 [lapatinib]
response of cells to drug alone ([2]; single agent): resistant
response of cells to drug alone [3]: weak response
response of cells to drug alone [4]: weak response
cell growth after 16 weeks of continuous treatment ([6]; 250 nM lapatinib alone): actively proliferating
time by which outgrowth of treated cells became noticeable [6, 13]: ≤ 8 week
inhibition of cell growth after 1 week of treatment [6]: extremely effective
cell growth after 16 weeks of continuous treatment ([7]; 250 nM lapatinib alone): actively proliferating
time by which outgrowth of treated cells became noticeable [7, 13]: ≤ 4 week
inhibition of cell growth after 1 week of treatment [7]: extremely effective
sensitivity of SKBR3-LT relative to SKBR3 ([8]; single agent): less sensitive
